Test results taken from the supplement of paper PMC8149375.

What was measured:
Settings in all cases: treatment: drug + dasatinib (fixed dose, not stated); 5 days
[1] = tested on: CAKI-1; assay: GI50 of drug in presence of dasatinib; higher = less potent
Procedure: (§1)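 Primary HTS combination arm: 8 RCC cell lines treated with 8 doses (up to 10 uM) of each library drug plus a fixed dose of dasatinib (dose not stated) for 5 days; viability read by CellTiter-Glo and normalised to DMSO. GI50 was fitted with XLfit, AUC is the area under the dose-response curve, and minimum viability is the lowest fraction of DMSO viability across doses.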

[2] = tested on: TK-10; assay: as above
Procedure: as §1

[3] = tested on: 786-O; assay: as above
Procedure: as §1

[4] = tested on: 769-P; assay: as above
Procedure: as §1

[5] = tested on: UO-31; assay: as above
Procedure: as §1

[6] = tested on: ACHN; assay: as above
Procedure: as §1

[7] = tested on: SN12C; assay: as above
Procedure: as §1

[8] = tested on: A498; assay: as above
Procedure: as §1

[9] = tested on: CAKI-1; assay: AUC of dose-response viability curve, drug + dasatinib, normalised to DMSO (arbitrary (AUC of normalised viability)); higher = less growth inhibition
Procedure: as §1

[10] = tested on: TK-10; assay: as above
Procedure: as §1

[11] = tested on: 786-O; assay: as above
Procedure: as §1

[12] = tested on: 769-P; assay: as above
Procedure: as §1

[13] = tested on: UO-31; assay: as above
Procedure: as §1

[14] = tested on: ACHN; assay: as above
Procedure: as §1

[15] = tested on: SN12C; assay: as above
Procedure: as §1

[16] = tested on: A498; assay: as above
Procedure: as §1

[17] = tested on: CAKI-1; assay: minimum viability across doses, drug + dasatinib, relative to DMSO (fraction); higher = less growth inhibition
Procedure: as §1

[18] = tested on: TK-10; assay: as above
Procedure: as §1

[19] = tested on: 786-O; assay: as above
Procedure: as §1

[20] = tested on: 769-P; assay: as above
Procedure: as §1

[21] = tested on: UO-31; assay: as above
Procedure: as §1

[22] = tested on: ACHN; assay: as above
Procedure: as §1

[23] = tested on: SN12C; assay: as above
Procedure: as §1

[24] = tested on: A498; assay: as above
Procedure: as §1

Compound	GI50 of drug [3]	GI50 of drug [6]	GI50 of drug [1]	GI50 of drug [2]	GI50 of drug [4]	GI50 of drug [5]	GI50 of drug [7]	GI50 of drug [8]	AUC of dose-response viability curve [9]	AUC of dose-response viability curve [10]	AUC of dose-response viability curve [11]	AUC of dose-response viability curve [12]	AUC of dose-response viability curve [13]	AUC of dose-response viability curve [14]	AUC of dose-response viability curve [15]	AUC of dose-response viability curve [16]	minimum viability across doses [17]	minimum viability across doses [18]	minimum viability across doses [19]	minimum viability across doses [20]	minimum viability across doses [21]	minimum viability across doses [22]	minimum viability across doses [23]	minimum viability across doses [24]
O=C(NOCC1CC1)c1ccc(F)c(F)c1Nc1ccc(I)cc1Cl + Cc1nc(Nc2ncc(C(=O)Nc3c(C)cccc3Cl)s2)cc(N2CCN(CCO)CC2)n1 [dasatinib]	4460 nM	342 nM	1480 nM	4600 nM	1780 nM	2610 nM	1520 nM	3190 nM	2.04	2.4	2.46	2.12	2.72	1.8	2.07	2.51	0.13	0.367	0.431	0.197	0.174	0.224	0.298	0.306
CNC(=O)c1ccc(C)c(-n2c(C)cc(OCc3ccc(F)cc3F)c(Br)c2=O)c1 + Cc1nc(Nc2ncc(C(=O)Nc3c(C)cccc3Cl)s2)cc(N2CCN(CCO)CC2)n1 [dasatinib]	< 3 nM	90.6 nM	> 10000 nM	> 10000 nM	> 10000 nM	> 10000 nM	> 10000 nM	> 10000 nM	2.3	2.23	1.89	2.22	4.38	1.68	2.42	3.58	0.561	0.541	0.457	0.558	1.15	0.346	0.64	0.937
CCc1cnn2c(NCc3ccc[n+]([O-])c3)cc(N3CCCC[C@H]3CCO)nc12 + Cc1nc(Nc2ncc(C(=O)Nc3c(C)cccc3Cl)s2)cc(N2CCN(CCO)CC2)n1 [dasatinib]	3.6 nM	3.94 nM	7.08 nM	14.1 nM	16.7 nM	15.1 nM	11.5 nM	11.9 nM	0.562	1.11	0.357	0.787	0.771	0.506	0.562	0.592	0.0412	0.169	0.00583	0.0174	0.0088	0.00901	0.0087	0.00891
COC1=CC(c2cc3ccccc3[nH]2)=N/C1=C\c1[nH]c(C)cc1C.CS(=O)(=O)O [Obatoclax mesylate (GX15-070)] + Cc1nc(Nc2ncc(C(=O)Nc3c(C)cccc3Cl)s2)cc(N2CCN(CCO)CC2)n1 [dasatinib]	31.6 nM	15.4 nM	122 nM	86.6 nM	145 nM	305 nM	153 nM	277 nM	1.4	1.58	0.949	1.46	2.23	0.992	1.38	1.76	0.00534	0.151	0.00545	0.0261	0.00726	0.014	0.00176	0.0102
CC1(C)CCC(c2ccc(Cl)cc2)=C(CN2CCN(c3ccc(C(=O)NS(=O)(=O)c4ccc(N[C@H](CCN5CCOCC5)CSc5ccccc5)c(S(=O)(=O)C(F)(F)F)c4)cc3)CC2)C1 [ABT-263 (Navitoclax)] + Cc1nc(Nc2ncc(C(=O)Nc3c(C)cccc3Cl)s2)cc(N2CCN(CCO)CC2)n1 [dasatinib]	136 nM	1060 nM	> 10000 nM	1080 nM	768 nM	400 nM	> 10000 nM	> 10000 nM	2.36	2.03	1.46	1.92	2	1.9	2.48	3.01	0.555	0.0882	0.00344	0.024	0.00471	0.0781	0.502	0.608
Cc1ccc(NC(=O)c2ccc(CN3CCN(C)CC3)cc2)cc1Nc1nc(-c2cccnc2)cs1 [Masitinib (AB1010)] + Cc1nc(Nc2ncc(C(=O)Nc3c(C)cccc3Cl)s2)cc(N2CCN(CCO)CC2)n1 [dasatinib]	4050 nM	460 nM	6750 nM	> 10000 nM	4700 nM	6090 nM	> 10000 nM	> 10000 nM	2.28	2.71	2.55	2.3	3.05	1.96	2.51	3.05	0.438	0.57	0.204	0.377	0.271	0.263	0.484	0.622
COc1cc(Nc2ncc(F)c(Nc3ccc4c(n3)N(COP(=O)([O-])[O-])C(=O)C(C)(C)O4)n2)cc(OC)c1OC.[Na+].[Na+] + Cc1nc(Nc2ncc(C(=O)Nc3c(C)cccc3Cl)s2)cc(N2CCN(CCO)CC2)n1 [dasatinib]	419 nM	68.7 nM	161 nM	2070 nM	1630 nM	1580 nM	793 nM	> 10000 nM	1.52	2.17	1.78	2.15	2.8	1.48	2.03	3.45	0.00358	0.304	0.245	0.0654	0.0117	0.0433	0.202	0.671
O=C(NOC[C@H](O)CO)c1ccc(F)c(F)c1Nc1ccc(I)cc1F + Cc1nc(Nc2ncc(C(=O)Nc3c(C)cccc3Cl)s2)cc(N2CCN(CCO)CC2)n1 [dasatinib]	266 nM	13.5 nM	148 nM	335 nM	74.4 nM	141 nM	233 nM	259 nM	1.51	1.91	1.85	1.42	1.6	1.36	1.75	1.85	0.0721	0.296	0.377	0.173	0.0632	0.3	0.308	0.302
Cc1cc2c(C(C)C)c(O)c(O)c(C=O)c2c(O)c1-c1c(C)cc2c(C(C)C)c(O)c(O)c(C=O)c2c1O [AT101] + Cc1nc(Nc2ncc(C(=O)Nc3c(C)cccc3Cl)s2)cc(N2CCN(CCO)CC2)n1 [dasatinib]	> 10000 nM	1850 nM	3350 nM	> 10000 nM	> 10000 nM	> 10000 nM	> 10000 nM	> 10000 nM	2.15	2.33	2.18	2.6	3.9	1.84	2.62	3.27	0.106	0.517	0.265	0.636	0.947	0.133	0.667	0.835
Cc1ccccc1-n1c(Cn2ncc3c(N)ncnc32)nc2cccc(C)c2c1=O [PIK-293] + Cc1nc(Nc2ncc(C(=O)Nc3c(C)cccc3Cl)s2)cc(N2CCN(CCO)CC2)n1 [dasatinib]	> 10000 nM	2540 nM	> 10000 nM	> 10000 nM	> 10000 nM	> 10000 nM	> 10000 nM	> 10000 nM	2.38	2.47	2.24	2.55	4.4	2.17	2.43	3.17	0.655	0.66	0.6	0.685	1.15	0.539	0.666	0.782
CCN1CCN(c2ccc(Nc3cc(N(C)C(=O)Nc4c(Cl)c(OC)cc(OC)c4Cl)ncn3)cc2)CC1 [BGJ398 (NVP-BGJ398)] + Cc1nc(Nc2ncc(C(=O)Nc3c(C)cccc3Cl)s2)cc(N2CCN(CCO)CC2)n1 [dasatinib]	990 nM	26.6 nM	26.6 nM	1350 nM	2890 nM	1260 nM	131 nM	9590 nM	1.15	2.18	1.97	2.3	2.64	1.29	1.66	2.87	0.0483	0.221	0.249	0.234	0.00819	0.0494	0.0804	0.435
Cc1c(NC(=O)OC[C@@H]2COCCN2)cn2ncnc(Nc3ccc4c(cnn4Cc4cccc(F)c4)c3)c12.Cl + Cc1nc(Nc2ncc(C(=O)Nc3c(C)cccc3Cl)s2)cc(N2CCN(CCO)CC2)n1 [dasatinib]	7250 nM	230 nM	2430 nM	1140 nM	652 nM	5460 nM	> 10000 nM	> 10000 nM	2.24	2.31	2.62	2.01	2.98	1.84	2.47	3.28	0.441	0.19	0.444	0.157	0.251	0.249	0.662	0.858

Continued, in another order:

GI50 of drug [3]	GI50 of drug [6]	Compound	GI50 of drug [1]	GI50 of drug [2]	GI50 of drug [4]	GI50 of drug [5]	GI50 of drug [7]	GI50 of drug [8]	AUC of dose-response viability curve [9]	AUC of dose-response viability curve [10]	AUC of dose-response viability curve [11]	AUC of dose-response viability curve [12]	AUC of dose-response viability curve [13]	AUC of dose-response viability curve [14]	AUC of dose-response viability curve [15]	AUC of dose-response viability curve [16]	minimum viability across doses [17]	minimum viability across doses [18]	minimum viability across doses [19]	minimum viability across doses [20]	minimum viability across doses [21]	minimum viability across doses [22]	minimum viability across doses [23]	minimum viability across doses [24]
> 10000 nM	5.43 nM	COCC[n+]1c2c(n(Cc3cnccn3)c1C)C(=O)c1ccccc1C2=O [YM155] + Cc1nc(Nc2ncc(C(=O)Nc3c(C)cccc3Cl)s2)cc(N2CCN(CCO)CC2)n1 [dasatinib]	4.86 nM	14.4 nM	10.7 nM	45 nM	8.39 nM	8.38 nM	0.385	0.933	0.302	0.63	1.3	0.479	0.503	0.476	0.00438	0.0206	0.00497	0.00674	0.00698	0.00126	0.00231	0.00896
2470 nM	2330 nM	N#C/C(=C\c1ccc(O)c(O)c1)C(=O)NCc1ccccc1 [AG-490] + Cc1nc(Nc2ncc(C(=O)Nc3c(C)cccc3Cl)s2)cc(N2CCN(CCO)CC2)n1 [dasatinib]	> 10000 nM	> 10000 nM	8560 nM	> 10000 nM	> 10000 nM	> 10000 nM	2.43	2.62	2.36	2.42	3.44	1.98	2.49	3.3	0.667	0.544	0.355	0.488	0.8	0.179	0.681	0.887
